Measurements: article PMC8954547, “Nonpeptidic Z360-Analogs Tagged with Trivalent Radiometals as Anti-CCK2R Cancer Theranostic Agents: A Preclinical Study” (Pharmaceutics, 2022)
*1 amine or outer side, *2 acyl side, *3 side chain or, on linkers, in order; H or OH if unused. Where a SMILES comes first, the peptide text is derived from it. [ ]: non-standard residue; d: D form. The star is where a group is joined. X1 = CC(C)(C)C(=O)CN1C(=O)[C@H](N*)CN(C2CCCCC2)c2ccccc21; pGlu = O=C1CC[C@@H](C(=O)O)N1; PEG3 = NCCOCCOCCOCCC(=O)O; 3Abz = Nc1cccc(C(=O)O)c1; X2 = NCCNCC(CNCCN)C(=O)*; CO = O=C([*:1])[*:2]

Experiments:
human CCK2R [1] = target: T1, human CCK2R (Homo sapiens, UniProt P32239); assay: FRET-based Ca2+ mobilization assay in HEK293-hCCK2R/YC3.60 cells; format: cell-based
T1 construct: host or cells: HEK293 clone #21 (HEK293-hCCK2R/YC3.60), stably co-expressing the Ca2+ biosensor YC3.60
T1 sequence (P32239 1-447): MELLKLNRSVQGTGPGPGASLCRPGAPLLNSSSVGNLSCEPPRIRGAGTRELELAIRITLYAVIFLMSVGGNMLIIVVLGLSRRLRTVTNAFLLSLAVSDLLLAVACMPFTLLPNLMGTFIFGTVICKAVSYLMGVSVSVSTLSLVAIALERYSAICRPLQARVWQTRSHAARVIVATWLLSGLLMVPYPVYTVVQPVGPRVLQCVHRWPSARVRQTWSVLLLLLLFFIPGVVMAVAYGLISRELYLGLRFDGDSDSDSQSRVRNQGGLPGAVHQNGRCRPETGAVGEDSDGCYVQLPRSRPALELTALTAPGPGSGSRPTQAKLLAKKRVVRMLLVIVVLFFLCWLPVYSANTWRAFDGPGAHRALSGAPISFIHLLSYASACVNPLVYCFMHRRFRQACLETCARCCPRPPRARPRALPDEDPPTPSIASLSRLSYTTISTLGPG
Description: For most biological experiments, HEK293 cells transfected to stably express the human CCK2i4svR splice variant were used, kindly provided by Dr. P. Laverman (Radboud University Nijmegen Medical Center, Nijmegen, The Netherlands) and Prof. M. R. Hellmich (University of Texas Medical Branch, Galveston, TX, USA), while non-transfected wtHEK293 cells served as negative controls. Cells were cultured in DMEM with GlutaMAX-I supplemented with 10% (v/v) fetal bovine serum (FBS), 100 U/mL penicillin and 100 μg/mL streptomycin and kept in a controlled humidified air containing 5% CO2 at 37 °C; the medium for transfected cells was additionally supplemented with 400 μg/mL G418. All culture media were purchased from Gibco BRL, Life Technologies (Grand Island, NY, USA) and supplements were supplied by Biochrom KG Seromed (Berlin, Germany). For Ca^2+-mobilization assays, HEK293 cell clones (generated by O.G. Chepurny in the G.G. Holz laboratory) were transfected to stably co-express either both the human CCK2R and the Ca^2+ biosensor YC3.60 (clone #21) or only YC3.60 (clone #5, negative controls devoid of CCK2R expression) (Supplementary File). Ca^2+ mobilization assays were conducted by FRET-based detection of Ca^2+ in HEK293-hCCK2R/YC3.60 and HEK293-YC3.60 cells (negative controls) for GAS1/2/3 as well as for DG2, [Leu^15]gastrin-17 and Z360 (controls), as outlined in the Supplementary File. […]
Table S2. Analytical HPLC Data for (Radio)Metal-Tagged GAS1/2/3 (tR (min) gamma/UV trace). compound - [67Ga]Ga/[natGa]Ga [111In]In/[natIn]In [177Lu]Lu/[natLu]Lu […]
(§1) Purity as determined by HPLC exceeded 97% in all cases. system 1 was applied: RP-HPLC with twin UV detection at 220 nm and gamma detection; a Symmetry Shield RP18 column (5 μm, 3.9 mm × 150 mm) was eluted at a flow rate of 1 mL/min with linear gradient: 100%A/0% B to 70%A/30% B in 5 min and then 70%A/30% B to 55%A/45% B in 60 min, with A = 0.1% TFA in H2O (v/v) and B = MeCN.
Preparation of [natGa]Ga-GAS1/2/3, [natIn]In-GAS1/2/3 and [natLu]Lu-GAS1/3 To an Eppendorf Protein LoBind® centrifuge tube containing GAS1/2/3 precursor stock solution (60 μL, 120 μg, ≈60 nmol), a stock solution (60 μL, 2 mM, 120 nmol) of the respective nitrate salt dissolved in 1 M sodium acetate buffer of pH 4.0 (for gallium), 4.6 (for indium) and 5.0 (for lutetium) was added. The mixture was heated at 75 °C for 1 h. […]
action mixture using HPLC system 1, allowing for base line separation of metal-tagged from metal-free GAS1/2/3. Retention times (UV trace, tR in min) of all GAS species were included in Table S2. The metal-tagged GAS solutions were used as such in in vitro com-petition binding assays assuming a 0.5 mM CCK2R-ligand concentration.
Methods for FRET-based detection of Ca2+ in HEK293 cells were descri bed previ ousl y. The clone #21 HEK293 cell line (HEK293-hCCK2R/YC3.60) stably co-expressing the human CCK2R and the Ca2+ biosensor YC3.60 was generated a ccording to published methods. The clone #5 HEK293 cell line (HEK293-YC3.60) that expressed only YC3.60 served as a negative control and was generated in a similar matter. […] The human CCK2R (NM_176875) in pCMV6-Entry vector contained the receptor’s complete open reading frame with a Myc-DDK epitope tag (OriGene Technologies; Cat. No. R200676). Test compounds included human [Leu15]-gastrin- […]

[2] = target: T2, human CCK2i4svR splice variant (Homo sapiens, UniProt P32239); assay: Competition binding against [125I][I-Tyr12,Leu15]gastrin-17 in HEK293-CCK2i4svR cell membranes; conditions: vs [125I][I-Tyr12,Leu15]gastrin-17, HEK293-CCK2i4svR cell membranes, 1 h 22 °C; mean ± SD
T2 construct: expressed in transfected cells; membrane homogenates
T2 sequence (P32239 1-516 isoform P32239-2): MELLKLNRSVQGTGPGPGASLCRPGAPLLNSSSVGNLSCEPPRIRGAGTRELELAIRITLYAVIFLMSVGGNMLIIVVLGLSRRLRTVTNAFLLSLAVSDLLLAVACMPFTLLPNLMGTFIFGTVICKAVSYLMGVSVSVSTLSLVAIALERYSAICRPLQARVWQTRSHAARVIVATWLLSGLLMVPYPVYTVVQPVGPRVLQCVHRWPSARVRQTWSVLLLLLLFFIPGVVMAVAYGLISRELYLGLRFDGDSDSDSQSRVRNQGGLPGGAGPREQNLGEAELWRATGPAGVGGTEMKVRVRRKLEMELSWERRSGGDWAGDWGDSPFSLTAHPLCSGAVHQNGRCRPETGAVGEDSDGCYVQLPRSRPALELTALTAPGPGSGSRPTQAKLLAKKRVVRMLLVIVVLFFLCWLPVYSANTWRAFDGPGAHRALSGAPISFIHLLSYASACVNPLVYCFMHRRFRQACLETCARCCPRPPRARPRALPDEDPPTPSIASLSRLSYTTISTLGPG
Description: Competition binding assays for the metal-free GAS1/2/3 and the corresponding metal-tagged [^natGa]Ga/[^natIn]In/[^natLu]Lu-GAS1/3 and [^natGa]Ga/[^natIn]In-GAS2 analogs were conducted against the [^125I][I-Tyr^12,Leu^15]gastrin-17 radioligand in membrane homogenates harvested from HEK293-CCK2i4svR cells, as previously described. Briefly, each of the above analogs, or unmodified Z360 serving as control, was incubated in triplicates of increasing concentrations (10^−13–10^−6 M) with [^125I][I-Tyr^12,Leu^15]gastrin-17 (50 pM, ≈40,000 cpm) and membrane homogenate in binding buffer (300 µL, pH 7.4, 50 mM HEPES, 1% BSA, 5.5 mM MgCl2, 35 µM bacitracin) for 1 h at 22 °C. Incubation was interrupted by rapid filtration through glass fiber filters (Whatman GF/B, presoaked in binding buffer for at least 1 h) on a Brandel Cell Harvester (Adi Hassel Ingenieur Büro, Munich, Germany) and subsequent rinsing with ice-cold washing buffer (10 mM HEPES pH 7.4, 150 mM NaCl). The radioactivity content of individual filters was measured in a gamma counter (automated multi-sample well-type instrument with a NaI(Tl) 3′ crystal, Canberra Packard Cobra^TM Quantum U5003/1, Auto-Gamma® counting system). The 50% inhibitory concentration (IC50) was determined by nonlinear regression analysis according to a one-site model using PRISM 6 (Graph Pad Software, San Diego, CA, USA). Values are expressed as mean ± standard deviation (SD) of three independent experiments performed in triplicate.

human CCK2R [3] = target: T1, human CCK2R; design: method as in PMID 32568549; conditions: cited from earlier work
HEK293-YC3.60 cells = assay: FRET-based Ca2+ mobilization assay in HEK293-YC3.60 cells (negative controls devoid of CCK2R); format: cell-based, human; conditions: HEK293-YC3.60 clone #5
Description: For most biological experiments, HEK293 cells transfected to stably express the human CCK2i4svR splice variant were used, kindly provided by Dr. P. Laverman (Radboud University Nijmegen Medical Center, Nijmegen, The Netherlands) and Prof. M. R. Hellmich (University of Texas Medical Branch, Galveston, TX, USA), while non-transfected wtHEK293 cells served as negative controls. Cells were cultured in DMEM with GlutaMAX-I supplemented with 10% (v/v) fetal bovine serum (FBS), 100 U/mL penicillin and 100 μg/mL streptomycin and kept in a controlled humidified air containing 5% CO2 at 37 °C; the medium for transfected cells was additionally supplemented with 400 μg/mL G418. […]
as §1, with “MeCN. […]” for “MeCN.”
Methods for FRET-based detection of Ca2+ in HEK293 cells were descri bed previ ousl y. […] The human CCK2R (NM_176875) in pCMV6-Entry vector contained the receptor’s complete open reading frame with a Myc-DDK epitope tag (OriGene Technologies; Cat. No. R200676). […]

SMILES | Concentration at which the CCK2R is activated (Ca2+ mobilization) (human CCK2R [1]) | Concentration threshold for agonistic properties (Ca2+ mobilization) (human CCK2R [1]) | IC50 [2] | Functional profile at the CCK2R (human CCK2R [3]) | Ca2+ response in cells devoid of CCK2R expression (HEK293-YC3.60 cells)
CC(C)(C)C(=O)CN1C(=O)[C@H](NC(=O)Nc2cccc(C(=O)NCCOCCOCCOCCNC(=O)[C@H](CCC(=O)O)NC(=O)CN3CCN(CC(=O)O)CCN(CC(=O)O)CCN(CC(=O)O)CC3)c2)CN(C2CCCCC2)c2ccccc21 [GAS1, DOTA-DGlu-HN(PEG3)NH-Z360] |  | > 100 nM | 5.9 ± 1.8 nM |  | 
CC(C)(C)C(=O)CN1C(=O)[C@H](NC(=O)Nc2cccc(C(=O)NCCOCCOCCOCCNC(=O)[C@H](CCC(=O)O)NC(=O)CCC(C(=O)O)N3CCN(CC(=O)O)CCN(CC(=O)O)CC3)c2)CN(C2CCCCC2)c2ccccc21 (some centres unmarked) [GAS2, NODAGA-DGlu-HN(PEG3)NH-Z360] |  | > 100 nM | 4.1 ± 1.1 nM |  | 
CC(C)(C)C(=O)CN1C(=O)[C@H](NC(=O)Nc2cccc(C(=O)NCCOCCOCCOCCC(=O)N[C@H](CCC(=O)O)C(=O)N[C@H](CCC(=O)O)C(=O)N[C@H](CCC(=O)O)C(=O)N[C@H](CCC(=O)O)C(=O)N[C@@H](CCCCNC(=O)C(CNCCN)CNCCN)C(=O)O)c2)CN(C2CCCCC2)c2ccccc21 [DGA1, Z360-PEG3-DGlu-DGlu-DGlu-DGu-Lys(N4)−OH] ({X1-CO-3Abz-PEG3}-[dE][dE][dE][dE]K(X2)-OH) |  |  |  | pure antagonist profile | 
CC(C)(C)C(=O)CN1C(=O)[C@H](NC(=O)Nc2cccc(C(=O)NCCOCCOCCOCCNC(=O)[C@H](CCC(=O)O)NC(=O)CCC(C(=O)O)N3CCN(CC(=O)O)CCN(CC(=O)O)CCN(CC(=O)O)CC3)c2)CN(C2CCCCC2)c2ccccc21 (some centres unmarked) [GAS3, DOTAGA-DGlu-HN(PEG3)NH-Z360] |  | > 100 nM | 3.1 ± 1.5 nM |  | 
CC(C)C[C@H](NC(=O)[C@H](Cc1c[nH]c2ccccc12)NC(=O)CNC(=O)[C@H](Cc1ccc(O)cc1)NC(=O)[C@H](C)NC(=O)[C@H](CCC(=O)O)NC(=O)[C@H](CCC(=O)O)NC(=O)[C@H](CCC(=O)O)NC(=O)[C@H](CCC(=O)O)NC(=O)[C@H](CCC(=O)O)NC(=O)[C@H](CC(C)C)NC(=O)[C@H](Cc1c[nH]c2ccccc12)NC(=O)[C@@H]1CCCN1C(=O)CNC(=O)[C@@H]1CCC(=O)N1)C(=O)N[C@@H](CC(=O)O)C(=O)N[C@@H](Cc1ccccc1)C(N)=O [[Leu^15]gastrin-17, pGlu-Gly-Pro-Trp-Leu-(Glu)5-Ala-Tyr-Gly-Trp-Leu-Asp-Phe-NH2, reference compound] ([pGlu]GPWLEEEEEAYGWLDF-NH2) | 100 pM |  |  |  | failed to respond
CC(C)(C)C(=O)CN1C(=O)C(NC(=O)Nc2cccc(C(=O)O)c2)CN(C2CCCCC2)c2ccccc21 (centres unmarked) [Z360] |  | > 100 nM | 1.2 ± 0.5 nM |  | 
